Reference: PubChem BioAssay (NCI)
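All cell lines were grown in 96-well plates and treated with compound for 48 hours. GI50 is the concentration that inhibits growth by half. TGI: concentration producing complete growth inhibition.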

Experiments:
Test in all cases: growth of human tumour cells (NCI), 48 h
IGROV1 ovarian = tested on: IGROV1 ovarian
SF-295 CNS = tested on: SF-295 CNS
SR leukemia = tested on: SR leukemia
A498 renal = tested on: A498 renal
UACC-62 melanoma = tested on: UACC-62 melanoma
MCF7 breast = tested on: MCF7 breast
MDA-MB-435 = tested on: MDA-MB-435
TK-10 renal = tested on: TK-10 renal
MALME-3M melanoma = tested on: MALME-3M melanoma

Row | SMILES | TGI (IGROV1 ovarian) [µM] | TGI (SF-295 CNS) [µM] | TGI (SR leukemia) [µM] | TGI (A498 renal) [µM] | TGI (UACC-62 melanoma) [µM] | TGI (MCF7 breast) [µM] | TGI (MDA-MB-435) [µM] | TGI (TK-10 renal) [µM] | TGI (MALME-3M melanoma) [µM] | GI50 (MALME-3M melanoma) [µM] | GI50 (SF-295 CNS) [µM] | GI50 (UACC-62 melanoma) [µM] | GI50 (MCF7 breast) [µM] | GI50 (MDA-MB-435) [µM] | GI50 (TK-10 renal) [µM]
1 | O=C(NCCCCNCCCNC(=O)OCc1ccccc1)OCc1ccccc1 | 73.9 | 51.5 | 92.3 | 36.8 | 37.1 | 71.2 | > 100 | > 100 | – | – | – | – | – | – | –
2 | CCCCCCCCC[n+]1cccc(C2C(C(=O)OCC)=C(C)NC(C)=C2C(=O)OCC)c1 | 5.47 | 33.9 | > 25.3 | 38.6 | 3.54 | 6.74 | 4.48 | 25.8 | 4.67 | – | – | – | – | – | –
3 | O=C1C(=Cc2ccccc2[N+](=O)[O-])N=C(c2ccccc2)N1n1c(-c2ccccc2)nc2ccccc2c1=O | > 100 | > 100 | > 100 | – | 46.6 | 52.4 | > 100 | > 100 | 91.7 | – | – | – | – | – | –
4 | C=C1C(=O)O[C@H]2C3C(=C(C)CC[C@@H]12)C(=O)[C@@H]1OC31C (some centres undefined) | 11.8 | 27.3 | – | 23.7 | 5.69 | 11.2 | 7.13 | 4.4 | 4.66 | – | – | – | – | – | –
5 | COc1ccc(NC(=S)NNC(=O)c2cc(-c3ccccc3)nc3ccccc23)cc1 | > 100 | 16.4 | 9.79 | 35.1 | 30.6 | 17 | 13.4 | 46.8 | 54 | – | – | – | – | – | –
6 | Cc1cc(C)c2c(c1)CC1(Cc3c(C)cc(C)cc3C1=O)C2=O (centres undefined) | > 100 | > 100 | > 100 | > 100 | > 100 | > 100 | > 100 | > 100 | > 100 | – | – | – | – | – | –
7 | O=S(=O)(/N=C1/SC(=Nc2ccccc2)N(c2ccccc2)/C1=N/S(=O)(=O)c1ccccc1)c1ccccc1 | 46.7 | – | 50.6 | 37.6 | 31.9 | 52.7 | – | 91.8 | 68.6 | – | – | – | – | – | –
8 | CC1(C)CC(=O)C(=CN2C(=O)CNC2=S)C(=O)C1 | > 100 | > 100 | – | – | > 100 | > 100 | > 100 | > 100 | – | – | – | – | – | – | –
9 | Cc1ccc([N+](=O)[O-])cc1NC(=O)C(=O)C1CCC2=C(Sc3ccccc3N2)C1=O (centres undefined) | > 100 | > 100 | – | – | > 100 | > 100 | > 100 | > 100 | – | – | – | – | – | – | –
10 | CCOC(=O)c1cc(-c2ccn(C(C)=O)c2)c(-c2cc(C)co2)[nH]1 | > 100 | > 100 | > 100 | > 100 | > 100 | > 100 | > 100 | > 100 | > 100 | – | – | – | – | – | –
11 | O=C(NCc1cccnc1)C(=O)NCc1cccnc1 | > 100 | > 100 | > 100 | > 100 | > 100 | > 100 | > 100 | > 100 | > 100 | – | – | – | – | – | –
12 | COc1ccc(N2C(=O)/C(=C/c3ccc(N(CCC#N)CCC#N)cc3)N=C2c2ccccc2)c(OC)c1 | > 100 | > 100 | 60.3 | – | > 100 | > 100 | > 100 | > 100 | > 100 | – | – | – | – | – | –
13 | Cc1ccc(S(=O)(=O)N2CCN(CCO)CCN(S(=O)(=O)c3ccc(C)cc3)CCN(CCO)CC2)cc1 | > 100 | > 100 | 27.8 | 62.7 | 37.7 | 28.2 | 29.2 | > 100 | – | – | – | – | – | – | –
14 | c1cc2ccc1CNCCN1CCNCc3ccc(cc3)Oc3ccc(cc3)CNCCN(CCNCc3ccc(cc3)O2)CCNCc2ccc(cc2)Oc2ccc(cc2)CNCC1 | – | 3.18 | – | – | 3.1 | 2.1 | 2.7 | 3.45 | 3.13 | 1.66 | 1.76 | 1.66 | 0.581 | 1.36 | 1.62
15 | C=C1C(=O)O[C@H]2C/C(C=O)=C\[C@H]3O[C@H]3/C(COC(=O)C(C)C)=C/CC12 (some centres undefined) | 18.5 | 75.5 | 7.95 | – | 5.42 | 50 | 18.9 | 25.7 | 24.2 | – | – | – | – | – | –
16 | Cc1cccc(C(O)c2cccnc2)c1O (centres undefined) | > 100 | > 100 | > 100 | – | > 100 | > 100 | > 100 | > 100 | > 100 | – | – | – | – | – | –
17 | O=c1oc2ccccc2c(O)c1Cc1cccc(Cc2c(O)c3ccccc3oc2=O)c1 | > 100 | > 100 | – | > 100 | > 100 | > 100 | > 100 | > 100 | > 100 | – | – | – | – | – | –
18 | CC1(C)O[C@@H](CP(c2cccc3ccccc23)c2cccc3ccccc23)[C@H](CP(c2cccc3ccccc23)c2cccc3ccccc23)O1 | > 100 | > 100 | > 100 | – | > 100 | > 100 | > 100 | > 100 | – | – | – | – | – | – | –
19 | COC1=CC(=O)c2c(cc(COP(=O)(N(C)CCBr)N(C)CCBr)n2C)C1=O | 19.2 | 3.62 | – | 6.12 | 2.26 | 8.42 | 2.35 | 2.01 | 2.95 | – | – | – | – | – | –
20 | COC(=O)C1=C(C)NC2(C)OC(C)(O)C(C(C)=O)C12C(C)=O (centres undefined) | > 100 | > 100 | – | > 100 | > 100 | > 100 | > 100 | > 100 | 50.9 | – | – | – | – | – | –
21 | CCCCCCCCCCCCCCCCNc1ccn(C2CC(OP(=O)(O)OCC3OC(n4cc(CC)c(=O)[nH]c4=O)CC3O)C(CO)O2)c(=O)n1 (centres undefined) | > 100 | 34.5 | 47.2 | > 100 | 35.8 | > 100 | > 100 | > 100 | – | – | – | – | – | – | –
22 | Cc1cccc2c1C(=O)[C@@](C)([C@]1(C)Nc3cccc(C)c3C1=O)N2 | > 100 | > 100 | > 100 | > 100 | > 100 | > 100 | > 100 | – | > 100 | – | – | – | – | – | –
23 | CC1(C)CC2(C)OC(=N)C1(C#N)C2(C#N)C#N (centres undefined) | 29.9 | 31.5 | – | 28.7 | 24.9 | 24.8 | 33.3 | 22.7 | 31.4 | – | – | – | – | – | –
24 | COc1ccc(NS(=O)c2cccc(C)c2)cc1 (centres undefined) | > 100 | > 100 | > 100 | – | – | > 100 | > 100 | > 100 | > 100 | – | – | – | – | – | –
